Measurements taken from paper PMC9558053, “Development of a novel high-throughput screen for the identification of new inhibitors of protein S-acylation” (The Journal of Biological Chemistry, 2022).

Tested on: endogenous SNAP23 S-acylation in HEK293T cells
Test: mPEG-click S-acylation of endogenous SNAP23 in HEK293T cells
Assay type: cell-based, human
Conditions: 25 and 50 μM, 4 h pretreatment + 4 h labeling
Description: Finally, we tested whether TTZ-1 and TTZ-2 were able to block the S-acylation of endogenous proteins in the absence of zDHHC enzyme overexpression. In order to detect the S-acylation of endogenous proteins, we used mPEG-click, a technique that we developed recently ([49]) that is better suited for the click chemistry–based analysis of S-acylation of endogenously expressed proteins. In this assay, cells are labeled with either palmitate (C16:0), or C16:0-azide, lysed, and then subjected to click chemistry with alkyne-mPEG 5K. The addition of mPEG 5K moieties to S-acylated proteins increases their apparent molecular weight, which can be detected directly by immunoblotting. HEK293T cells were pretreated for 4 h with either TTZ-1 or TTZ-2 at 25 and 50 μM and then labeled with fatty acids for another 4 h in the presence of the compounds. We first assessed the S-acylation of endogenous SNAP23 as it is a close relative of SNAP25 (SNAP25 is not expressed in the non-neuronal HEK293T cell line) ([50], [51]). […]
Figure 10 Activity of TTZ-1 and TTZ-2 against the S-acylation of endogenous proteins in mammalian cells. […] The data were quantified, and the graphs below each set of membranes show mean ± SEM of normalized S-acylation of either endogenous SNAP23 (A) or endogenous calnexin (B). […]

Compound | S-acylation of endogenous SNAP23
O=C(Nc1cccc2c1OC(c1nnn[nH]1)CN2)c1ccc(OCCCCc2ccccc2)cc1 (centres unmarked) [TTZ-2, N-(2-(1H-Tetrazol-5-yl)-3,4-dihydro-2H-benzo[b][1,4]oxazin-8-yl)-4-(4-phenylbutoxy)benzamide] | significant reduction
CCCCCCCOc1ccc(C(=O)Nc2cccc3c2OC(c2nnn[nH]2)CN3)cc1 (centres unmarked) [TTZ-1, N-(2-(1H-Tetrazol-5-yl)-3,4-dihydro-2H-benzo[b][1,4]oxazin-8-yl)-4-(heptyloxy)benzamide] | significant reduction
